Test results published in patent US9567368B2, “Peptide tyrosinase activators” (Escape Therapeutics, Inc., priority 2013, dated 2017).
Where no end group is shown, it is not given here.

Assays:
[1] = test system: B16-F1 mouse melanoma cells; assay: Melanin content measurement (extracellular and intracellular) in B16 cells; format: cell-based; conditions: relative to control
Experimental: (§1) B16-F1 mouse melanoma cells (CRL-6323) were obtained and cultured in DMEM containing 10 percent fetal bovine serum, 100 units per milliliter (U/mL) penicillin, 0.1 mg/mL streptomycin, and 0.25 microgram per milliliter (μg/mL) amphotericin B at 37 degrees Celsius in a humidified 95 percent air/5 percent CO2 incubator. Drug treatment began 24 hours after seeding. Cells were harvested 72 hours later and melanin content and tyrosinase activity determined in triplicate.
Extracellular melanin was estimated spectro-photometrically based on its absorption of light at 475 nanometers. After 72 hours treatment period, medium was collected and centrifuged (800×g for 10 minutes) and absorbance read at 475 nanometers. For intracellular melanin content, cells were collected by centrifugation and resuspended in PBS. Aliquots were removed for cell counting and protein estimation. To the remaining suspension, an equal volume of ethanol:ether (1:1 volume to volume) was added in order to remove opaque substances other than melanin which is not soluble in ethanol/ether (see, for example, Oikawa et al., Yale J. Biol. Med., 1973, 46: 500-507). After further centrifugation at 3000×g for 5 minutes, the precipitate was solubilized by treatment with 1 milliliter of 1 N NaOH solution at 80 degrees Celsius for 30 minutes in capped tubes. The absorbance was measured at 475 nanometers and compared to a standard curve prepared from standard dopa-melanin dissolved in the same solution. Melanin content per microgram (μg) cellular protein was calculated and expressed as a percentage of control.
FIGS. 2A-2B show the effect of P9 and P10 on extracellular and intracellular melanin content. […] In a specific embodiment, general materials and methods include 3×10E5 B16 cells per well incubated for 72 hours. Control wells had media only. Other treatments were 600 micromolar L-tyrosine; 50 microgram per milliliter scoparone; 300 micromolar IBMX; 300 micromolar P9; and 300 micromolar P10. Data are expressed as a percentage of the control and are mean±SEM of three separate experiments and analyzed by one-way ANOVA. On the graph, for the bar corresponding to extracellular data (indicated by “*”), P<0.01 versus extracellular control, and for the second bar corresponding to intracellular data (indicated by “**”), P<0.01 versus intracellular control.

B16 tyrosinase = biological target: T1, B16 tyrosinase (Mus musculus, UniProt P11344); assay: Assay of B16 tyrosinase activity (DOPA oxidase activity); format: cell-based; conditions: for B16 tyrosinase activity increase: 72 hours incubation, relative to control cells; for EC50: approximate, see FIG. 3, read-out: EC 50 (dose that produces half the maximum response)
T1 construct: host or cells: B16-F1 mouse melanoma cells
T1 sequence (P11344 19-533): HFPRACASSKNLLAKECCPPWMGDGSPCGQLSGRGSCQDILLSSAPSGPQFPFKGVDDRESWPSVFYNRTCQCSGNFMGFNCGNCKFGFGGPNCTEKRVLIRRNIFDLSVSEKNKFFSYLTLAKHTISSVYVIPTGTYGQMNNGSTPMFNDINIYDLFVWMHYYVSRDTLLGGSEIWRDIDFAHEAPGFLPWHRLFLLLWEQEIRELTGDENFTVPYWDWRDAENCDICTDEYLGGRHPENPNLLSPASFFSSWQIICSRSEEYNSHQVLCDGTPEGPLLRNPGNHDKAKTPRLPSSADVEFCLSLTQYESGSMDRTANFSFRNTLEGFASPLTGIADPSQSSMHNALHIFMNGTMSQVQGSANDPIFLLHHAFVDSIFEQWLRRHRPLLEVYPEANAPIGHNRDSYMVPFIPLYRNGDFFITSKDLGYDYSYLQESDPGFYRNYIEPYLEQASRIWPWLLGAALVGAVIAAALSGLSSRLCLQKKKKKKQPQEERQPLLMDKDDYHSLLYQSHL
Experimental: as §1
Tyrosinase activity was assayed as DOPA oxidase activity. This can be according to traditional or modified assaying methods (see, for example, Yang et al., Acta Pharmacol. Sin. 2006, 27: 1467-1473). Cells were washed twice with PBS and lysed with 20 […] (mmol/L) Tris-0.1 percent Triton X-100 (pH 7.5). Tyrosinase activity was analyzed spectrophotometrically by following the oxidation of DOPA to DOPAchrome at 475 nanometers. The reaction mixture containing 100 microliter (μL) of freshly prepared substrate solution [0.1 percent L-DOPA in 0.1 mol/L sodium phosphate (pH 6.8)] and 50 microliters (μL) of enzyme solution was incubated at 37 degrees Celsius. Absorbance change was measured during the first 10 minutes of the reaction while the increase of the absorbance was linear, and corrections for auto-oxidation of L-DOPA in the controls were made. Activities were expressed as a percentage of control cells.
(§2) For the tyrosinase activity, the reaction mixture containing 100 microliter of freshly prepared substrate solution [0.1 percent L-DOPA in 0.1 moles per liter sodium phosphate (pH 6.8)] and 50 microliters of enzyme solution was incubated at 37 degrees Celsius. The absorbance change was measured during the first 10 minutes of the reaction while the increase of the absorbance was linear, and corrections for auto-oxidation of L-DOPA in the controls were made. Activities were expressed as a percentage of the control cells. MTT was performed following the manufacturer's protocol. Data are expressed as a percentage of control and are mean±SEM of three separate experiments.

mushroom tyrosinase = assay: Assay of mushroom tyrosinase activity (L-tyrosine substrate, dopachrome at 475 nm); format: biochemical; conditions: for mushroom tyrosinase activity increase: 1 millimolar
Experimental: The effect of pentapeptides P9 and P10 on mushroom tyrosinase activity was determined in vitro using L-tyrosine as the substrate (see, for example, Piao et al., Chem. Pharm. Bull. (Tokyo), 2002, 50: 309-311). The experiment was conducted in a 96-well flat-bottomed plate. Each well contained 80 microliters of 0.067 molar potassium phosphate buffer (pH 6.8), 40 microliters of 5 milligrams per milliliter L-tyrosine dissolved in 0.067 molar potassium phosphate buffer (pH 6.8), 40 microliters of the different concentrations of P9 or P10 dissolved in the same buffer, and 40 microliters of 480 units per milliliter mushroom tyrosinase solution. The final volume of each well was 200 microliters, containing […] L-tyrosine, 96 units per millileter tyrosinase and varying concentrations of P9 or P10, ranging from 30 micromolar to 1 millimolar. In the control wells, P9 and P10 were substituted with buffer solution and adjusted to a 200 microliters total volume. The assay mixture was incubated at 37 degrees Celsius and optical density (OD), which correlates to the amount of dopachrome produced, was measured periodically at 475 nanometers using a microplate reader (e.g., a Varioskan microplate reader from Thermo Electron Corporation).
FIGS. 4A and 4B show mushroom tyrosinase activity increased by 123±4 percent and 156±4 percent at 1 millimolar P9 and P10, respectively. […] In the control wells, the reaction mix included purified mushroom tyrosinase, PBS (pH 6.8) and substrate L-tyrosine. In the other triplicate wells, P9 or P10 were added at various concentrations. The reaction was incubated at 37 degrees Celsius and the plate was read periodically at 475 nanometers.

[2] = MTT proliferation and viability assay; format: cell-based; conditions: mouse, B16 cells, percentage of control, read-out: proliferation rate
Experimental: Proliferation rates were determined using a general cell proliferation kit (e.g., TACS® MTT Cell Proliferation Kit from R&D systems). Cells were plated at 2.5×10E4 per well in 96-well plates in a humidified atmosphere with 5 percent CO2 at 37 degrees Celsius. Twenty-four hours after plating, test samples were added and cultures were incubated for an additional 72 hours. The remainder of the procedure was performed following the manufacturer's protocol.
as §2

[3] = test system: purified mushroom tyrosinase; assay: Allosteric activation of tyrosinase after inhibition by 6BH4; format: biochemical
Experimental: To investigate the mechanism by which P9 and P10 exert their stimulatory effect on tyrosinase, 6BH4, an allosteric inhibitor of tyrosinase, was used in an experiment. In a 96-well plate, control wells containing substrate L-tyrosine, purified mushroom tyrosinase, and PBS (pH 6.8) were incubated at 37 degrees Celsius and periodically read at 475 nanometers. After 6 minutes, 20 micromolar 6BH4 was added to all wells except controls. At minute 12, the other triplicate wells received one of the following reagents: 20 micromolar of α-MSH, 100 micromolar of P4, P9, or P10, or 200 micromolar L-tyrosine.
In a 96-well plate the control wells contained substrate L-tyrosine, purified mushroom tyrosinase and PBS (pH 6.8). The plate was incubated at 37 degrees Celsius and periodically read at 475 nanometers. After six minutes, 6BH4 was added to all wells except the control triplicate. At minute 12, the other triplicate wells received one of the following reagents: 10 micromolar of α-MSH, 100 micromolar of P4, P9 or P10, and 200 micromolar L-tyrosine. Data shown are mean±SEM of three independent runs.

[4] = 300 micromolar, 72 hours incubation
[5] = 10 micromolar α-MSH added at minute 12 after 6BH4
[6] = 600 micromolar L-tyrosine, 72 hours

## CC(C)Cn1c(=O)n(C)c(=O)c2[nH]cnc21 [IBMX, 3-isobutyl-1-methylxanthine]
[1]; [4]
  extracellular melanin content increase: 187±9%
  intracellular melanin content increase: 67±6%

## YSSWY [P9, YSSWY]
[1]; [4]
  extracellular melanin content increase: 170%
  intracellular melanin content increase: 47±6%
B16 tyrosinase; 3 millimolar
  B16 tyrosinase activity increase: 84±3%
B16 tyrosinase; 300 micromolar
  B16 tyrosinase activity increase: 38±4%
B16 tyrosinase
  EC50: ~300 µM
Mushroom tyrosinase
  mushroom tyrosinase activity increase: 123±4%
Mushroom tyrosinase; 30 micromolar
  dopachrome formation increase: 28±3%
Mushroom tyrosinase; 300 micromolar
  dopachrome formation increase: 100±3%
[2]
  viability at 72 h, 10 millimolar: 94 ± 2%

## COc1cc2ccc(=O)oc2cc1OC [scoparone, Scoparone]
[1]; 50 microgram per milliliter scoparone, 72 hours
  intracellular melanin content increase: 53±6.9%

## α-Melanocyte Stimulating Hormone [α-MSH]
[3]; [5]
  reversal of 6BH4-dependent tyrosinase inhibition (reactivation of the enzyme): reactivated the enzyme
  tyrosinase activity after reactivation, compared with control: increased its activity to levels exceeding the control

## N[C@@H](Cc1ccc(O)cc1)C(=O)O [L-tyrosine]
[1]; [6]
  extracellular melanin content increase: 43±5%
  intracellular melanin content increase: 7±3%
[3]; 200 micromolar L-tyrosine added at minute 12 after 6BH4
  reversal of 6BH4-dependent tyrosinase inhibition: neither the addition of P4 nor L-tyrosine reversed

## C[C@H](O)[C@H](O)[C@H]1CNc2nc(N)[nH]c(=O)c2N1 [6BH4, (6R)-L-erythro-5,6,7,8-tetrahydrobiopterin]
[3]; 20 micromolar 6BH4 added after 6 minutes
  inhibition of tyrosinase activity: inhibited completely

## YRSRK [P10, YRSRK]
[1]; [4]
  intracellular melanin content increase: 62±6%
B16 tyrosinase; 3 millimolar
  B16 tyrosinase activity increase: 91±6%
B16 tyrosinase; 300 micromolar
  B16 tyrosinase activity increase: 48±5%
B16 tyrosinase
  EC50: ~300 µM
Mushroom tyrosinase
  mushroom tyrosinase activity increase: 156±4%
Mushroom tyrosinase; 30 micromolar
  dopachrome formation increase: 45±3%
Mushroom tyrosinase; 300 micromolar
  dopachrome formation increase: 134±3%
[2]
  viability at 72 h, 10 millimolar: 95 ± 2%
